# Tests used:
# [1] = Rat 4 month medicated feed study: mortality and appetite; assay type: in vivo, Sprague-Dawley rats
# Text: Seventy-eight Sprague-Dawley rats aged either 16 or 22 months were maintained with daily 12-hour light/dark cycles and allowed constant access to feed and water. The animals were bred and housed at the Cantacuzino National Medico-Military Institute for Research and Development, Bucharest 050096, Romania. These animals were split into 3 separate groups of 26, each containing the same number of younger and older animals, which were then given the following feeds prepared by Altromin Spezialfutter GmbH & Co. for a period of 4 months: • (A) Control maintenance feed plus standard multivitamin supplement (No API's) • (B) Formulation (A) plus 80 mg/Kilo of Fenbendazole. • (C) Formulation (B) plus 12.5 mg/Kilo Tadalafil. A buccal swab was then taken from each animal using an OracollectDNA OCR-100 sampling device (DNA Genotek, Canada). DNA was extracted using a DNeasy® Blood & Tissue Kit (Qiagen UK, Cat No 69505) which was checked for purity and quantified with a QuickDrop Spectrophotometer (Molecular Devices, Model 504 7178). This material was then used to analyse relative telomere length as described in section 1.6 except that the Relative Rat Telomere Length Quantification qPCR Assay Kit (ScienCell Research Labs, Catalog No. R8908) was used. Five consecutive samples from each of the three treatment groups were analysed on each 96 well PCR plate to minimize any inter-plate variability.
# [2] = Canine case studies: age-related pathologies and tumour observations; assay type: in vivo, dog
# Procedure: In 2017, a […] (D.O.B Jan. 5, 2008) female Lhasa Apso/Jack Russell/Shih Tzu cross-breed (confirmed by genetic breed analysis: DNA-My-Dog) with a body mass of 9 Kg, was treated with 0.6 gm/day of 22.2% Fenbendazole (Panacur® granules) which was given orally for 3 consecutive days/week for 1 month and this cycle was repeated every 3rd month giving 4 cycles/annum providing a total of 16×1 month treatment cycles spread over a period of 4 yrs up to the present day.
# In 2017, a 4 yr old Jack Russell/Poodle/Maltese cross-breed (Confirmed by genetic breed analysis: DNA-My-Dog) with a body mass of 9.2 Kg was treated with 1.0 gm/day of 22.2% Fenbendazole Panacur® granules for 3 days per week and 4 days without. The dosing schedule of 3 days with, 4 days without treatment per week was continued for 3 months after which the dose was reduced to 0.6 gm/day of Panacur® and treatment alternated between 1 month with and 1 month without for 19 months providing a total of 11×1 month treatment cycles over the whole time period. After this, treatment was discontinued for 2 years and 5 months up to 12 May 2022 when a cheek swab was taken for analysis of biological age and this was repeated 5 months later on the 30 Sep. 2022.
# The initial reason for treating this animal was that it had been diagnosed with an anal sac adenocarcinoma and, at the time, it was decided to explore the use of Fenbendazole as an alternative treatment. […] Subject C2B's birth date was May 2014 giving a chronological age of 8 yrs which was verified by microchip implantation date using the Petlog database. Following the outlined treatment with Fenbendazole, in April 2022, a cheek epithelium swab was sent to DNA-My-Dog for assessment of breed composition and biological age by analysis of breed-specific telomere length. The result, returned on the 12 May 2022, reported a biological age of 1 yr old indicating a reduction in biological age of 7 yrs. which is equivalent to ˜90% reduction in biological age. […] After a further gap of 5 months without treatment, on the 30 Sep. […] However, unlike subject C2A, no treatment was given during this period so the most likely explanation is that the efficacy time-limit of the initial treatment has been exceeded.
# [3] = Rat 4 month medicated feed study: relative telomere length in buccal swab DNA (qPCR); assay type: in vivo, Sprague-Dawley rats; details: buccal swabs after 4 months feed; control 1.37 (SD=0.38)
# Text: Seventy-eight Sprague-Dawley rats aged either 16 or 22 months were maintained with daily 12-hour light/dark cycles and allowed constant access to feed and water. The animals were bred and housed at the Cantacuzino National Medico-Military Institute for Research and Development, Bucharest 050096, Romania. […] A buccal swab was then taken from each animal using an OracollectDNA OCR-100 sampling device (DNA Genotek, Canada). DNA was extracted using a DNeasy® Blood & Tissue Kit (Qiagen UK, Cat No 69505) which was checked for purity and quantified with a QuickDrop Spectrophotometer (Molecular Devices, Model 504 7178). […] R8908) was used. Five consecutive samples from each of the three treatment groups were analysed on each 96 well PCR plate to minimize any inter-plate variability.
smiles,measurement,setting,value
"COC(=O)Nc1nc2ccc(Sc3ccccc3)cc2[nH]1 [Fenbendazole, methyl 5-(phenylthio)-2-benzimidazole carbamate]",appetite versus control,[1]; 4 months medicated feed,greater
same,surviving animals,"[1]; after 4 months of medicated feed, groups of 26 rats aged 16 or 22 months, control 18",23
same,mortality,"[1]; after 4 months of medicated feed, control 30.7%",11.5%
same,body weight and physical activity,"[2]; dog C2A, during 4 yr treatment",significant weight-loss and increased physical activity
same,growth of teeth,"[2]; dog C2A, during 4 yr treatment",activation of new growth of teeth
same,skin conditions / subcutaneous lesions,"[2]; dog C2A, during 4 yr treatment",normalization of skin and regression of subcutaneous lipoma like lesions
same,persistence of anti-ageing effects after treatment is discontinued,[2]; dog C2B,at least 2 years
same,visible signs of ageing,[2]; dog C2B,does not show any visible signs of ageing
same,anal sac adenocarcinoma tumour,"[2]; dog C2B, during treatment",regressed
same,"average telomere length, times that in DNA from a 30 month old comparator",[3],1.59 (SD=0.48)
